Laboratory results: the supplement of paper PMC10307832

Legend:
Assay in all cases: relative viability (nuclei count vs DMSO), 5 days (fraction); higher = more cells survive
[1] = compound: CCN(CCO)CCCC(C)Nc1ccnc2cc(Cl)ccc12 [Hydroxychloroquine] + O=C(c1cc(Cc2n[nH]c(=O)c3ccccc23)ccc1F)N1CCN(C(=O)C2CC2)CC1 [Olaparib] (partner 8 µM)
Summary of the method: (§1)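 The day after seeding in 1536-well plates, lung cancer cell lines were treated by pin tool with a single drug, or with a fixed anchor-drug dose together with five library-drug doses (not always all listed) in √10 steps. After 5 days, a combined fix-and-stain solution (final 0.05% Triton X-100, 1% formaldehyde, 1 ug/ml Hoechst) was added. Nuclei counted on 4× images gave relative viability as treated counts over vehicle counts, reported as the median of duplicate plates.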

[2] = compound: CCN(CCO)CCCC(C)Nc1ccnc2cc(Cl)ccc12 [Hydroxychloroquine] + Nc1nc2[nH]cc(CCc3ccc(C(=O)N[C@@H](CCC(=O)O)C(=O)O)cc3)c2c(=O)[nH]1 [Pemetrexed] (partner 0.2 µM)
Summary of the method: as §1

[3] = compound: CCN(CCO)CCCC(C)Nc1ccnc2cc(Cl)ccc12 [Hydroxychloroquine] + O=C(CCCCCCC(=O)Nc1ccccc1)NO [Vorinostat] (partner 1 µM)
Summary of the method: as §1

[4] = compound: CCN(CCO)CCCC(C)Nc1ccnc2cc(Cl)ccc12 [Hydroxychloroquine] + C[C@]1(O)C[C@@H](c2nc(-c3ccc4ccc(-c5ccccc5)nc4c3)c3c(N)nccn32)C1 [Linsitinib] (partner 1 µM)
Summary of the method: as §1

Cell Line | relative viability ([1]; first compound 0.5 µM) | relative viability ([1]; first compound 1.581 µM) | relative viability ([1]; first compound 5 µM) | relative viability ([1]; first compound 15.81 µM) | relative viability ([1]; first compound 50 µM) | relative viability ([2]; first compound 0.5 µM) | relative viability ([2]; first compound 1.581 µM) | relative viability ([2]; first compound 5 µM) | relative viability ([2]; first compound 15.81 µM) | relative viability ([2]; first compound 50 µM) | relative viability ([3]; first compound 0.5 µM) | relative viability ([3]; first compound 1.581 µM) | relative viability ([3]; first compound 5 µM) | relative viability ([3]; first compound 15.81 µM) | relative viability ([3]; first compound 50 µM) | relative viability ([4]; first compound 0.5 µM) | relative viability ([4]; first compound 1.581 µM) | relative viability ([4]; first compound 5 µM) | relative viability ([4]; first compound 15.81 µM) | relative viability ([4]; first compound 50 µM)
LXF-289 | 1.07 | 1.06 | 1.07 | 1.15 | 1.16 | 0.886 | 0.908 | 0.92 | 0.929 | 0.927 | 0.767 | 0.795 | 0.723 | 0.757 | 0.709 | 0.986 | 0.985 | 0.992 | 0.995 | 1
NCI-H23 | 0.365 | 0.36 | 0.322 | 0.309 | 0.204 | 1.21 | 0.663 | 0.609 | 0.56 | 0.74 | 0.674 | 0.566 | 0.56 | 0.626 | 0.67 | 0.499 | 0.693 | 0.56 | 0.553 | 0.546
NCI-H322M | 0.741 | 0.75 | 0.753 | 0.725 | 0.751 | 0.639 | 0.609 | 0.601 | 0.608 | 0.592 | 0.849 | 0.877 | 0.83 | 0.839 | 0.991 | 0.891 | 1.06 | 0.961 | 0.945 | 0.972
NCI-H358 | 0.675 | 0.585 | 0.522 | 0.973 | 0.571 | 0.164 | 0.166 | 0.179 | 0.161 | 0.179 | 0.695 | 0.731 | 0.72 | 0.673 | 0.655 | 0.795 | 0.704 | 0.712 | 0.69 | 0.743
NCI-H441 | 0.543 | 0.551 | 0.498 | 0.547 | 0.553 | 0.234 | 0.258 | 0.284 | 0.227 | 0.278 | 0.734 | 0.677 | 0.781 | 1.07 | 0.693 | 0.561 | 0.497 | 0.627 | 0.664 | 0.699
NCI-H460 | 0.409 | 0.431 | 0.387 | 0.479 | 0.334 | 0.0632 | 0.055 | 0.0674 | 0.0549 | 0.0607 | 0.733 | 0.865 | 0.812 | 0.815 | 0.83 | 0.849 | 0.862 | 0.633 | 0.939 | 0.848
NCI-H520 | 0.344 | 0.354 | 0.304 | 0.337 | 0.364 | 0.76 | 0.729 | 0.596 | 0.657 | 0.798 | 0.915 | 0.642 | 0.743 | 0.77 | 0.715 | 1.25 | 0.908 | 0.908 | 1.16 | 0.923
NCI-H596 | 0.668 | 0.711 | 0.77 | 0.716 | 0.604 | 0.547 | 0.481 | 0.45 | 0.479 | 0.489 | 0.612 | 0.765 | 0.523 | 0.398 | 0.587 | 0.947 | 1.11 | 1.13 | 1.04 | 0.982
